# Laboratory results published in patent US8841233B2, “Herbicidal compositions comprising 4-amino-3-chloro-5-fluoro-6-(4-chloro-2-fluoro-3-methoxyphenyl) pyridine-2-carboxylic acid or a derivative thereof and 4-hydroxyphenyl-pyruvate dioxygenase (HPPD) inhibitors” (Dow Agrosciences LLC, priority 2012, dated 2014).
# What was measured:
# ECHCG [1] = assay: In-water applied weed control, transplanted paddy rice, greenhouse (Example II); assay type: in vivo, Echinochloa crusgalli (L.) Beauv.; conditions: for Visual Weed Control (%) - 22 DAA ECHCG Obs: Benzobicyclon (3.5%);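 as to Visual Weed Control (%) - 20 DAA ECHCG Obs: visual score 0 no injury to 100 complete kill versus untreated plants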
# Method: (§1) Evaluation of in-Water Applied Herbicidal Mixtures for Weed Control in Transplanted Paddy Rice
# (§2) Weed seeds or nutlets of the desired test plant species were planted in puddled soil (mud) prepared by mixing a shredded, non-sterilized mineral soil (50.5 percent silt, 25.5 percent clay, and 24 percent sand, with a pH of about 7.6 and an organic matter content of about 2.9 percent) and water at a 1:1 volumetric ratio. The prepared mud was dispensed in 365 mL aliquots into 16-ounce (oz.) non-perforated plastic pots with a surface area of 86.59 square centimeters (cm^2) leaving a headspace of 3 centimeters (cm) in each pot. Mud was allowed to dry overnight prior to planting or transplanting. Rice seeds were planted in Sun Gro MetroMix® 306 planting mixture, which typically has a pH of 6.0 to 6.8 and an organic matter content of about 30 percent, in plastic plug trays. Seedlings at the second or third leaf stage of growth were transplanted into 840 mL of mud contained in 32-oz. non-perforated plastic pots with a surface area of 86.59 cm^2 4 days prior to herbicide application. The paddy was created by filling the headspace of the pots with 2.5 to 3 cm of water. When required to ensure good germination and healthy plants, a fungicide treatment and/or other chemical or physical treatment was applied. The plants were grown for 4-22 days in a greenhouse with an approximate 14 h photoperiod which was maintained at about 29′C during the day and 26° C. during the night. Nutrients were added as Osmocote® (19:6:12, N:P:K+ minor nutrients) at 2 g per 16-oz. pot and 4 g per 32-oz. pot. Water was added on a regular basis to maintain the paddy flood, and supplemental lighting was provided with overhead metal halide 1000-Watt lamps as necessary. The plants were employed for testing when they reached the first through fourth true leaf stage.
# (§3) Treatments consisted of the acid or esters of 4-amino-3-chloro-5-fluoro-6-(4-chloro-2-fluoro-3-methoxy-phenyl)pyridine-2-carboxylic acid (compound A) each formulated as an SC (suspension concentrate) and various herbicidal components alone and in combination. Forms of compound A were applied on an acid equivalent basis.
# (§4) Other herbicidal components were applied on an active ingredient basis and included 4-hydroxyphenyl pyruvate dioxygenase (HPPD)-inhibiting herbicides mesotrione formulated as Callisto®, sulcotrione formulated as Mikado®, pyrazolynate formulated as Sunbird® 10% GR, and benzobicyclon formulated as Benzobicyclon 3.5% or technical material.
# (§5) Treatment requirements for each compound or herbicidal component were calculated based upon the rates being tested, the concentration of active ingredient or acid equivalent in the formulation, an application volume of 2 mL per component per pot, and an application area of 86.59 cm^2 per pot.
# (§6) For formulated compounds, a measured amount was placed in an individual 100 or 200 mL glass vial and was dissolved in a volume of 1.25% (v/v) Agri-Dex® crop oil concentrate to obtain application solutions.
# (§7) For technical grade compounds, a weighed amount was placed in an individual 100 to 200 mL glass vial and was dissolved in a volume of acetone to obtain concentrated stock solutions. […] The concentrated stock solutions obtained were diluted with an equivalent volume of an aqueous mixture containing 2.5% (v/v) crop oil concentrate so that the final application solutions contained 1.25% (v/v) crop oil concentrate.
# (§8) Applications were made by injecting with a pipetter appropriate amounts of the application solutions, individually and sequentially, into the aqueous layer of the paddy. Control plants were treated in the same manner with the solvent blank. Applications were made so that all treated plant material received the same concentrations of acetone and crop oil concentrate.
# (§9) The treated plants and control plants were placed in a greenhouse as described above and water was added as needed to maintain a paddy flood. […]
# DIGSA = assay: Post-emergence foliar-applied weed control, greenhouse (Example I); assay type: in vivo, Digitaria sanguinalis (L.) Scop.; conditions: 37.5 gai/ha
# Source text: (§10) Evaluation of Post-emergence Foliar-Applied Herbicidal Mixtures for Weed Control in Direct Seeded Rice
# (§11) Seeds or nutlets of the desired test plant species were planted in a soil matrix prepared by mixing a loam or sandy loam soil (e.g., 28.6 percent silt, 18.8 percent clay, and 52.6 percent sand, with a pH of about 5.8 and an organic matter content of about 1.8 percent) and calcareous grit in an 80 to 20 ratio. The soil matrix was contained in plastic pots with a volume of 1 quart and a surface area of 83.6 square centimeters (cm^2). When required to ensure good germination and healthy plants, a fungicide treatment and/or other chemical or physical treatment was applied. The plants were grown for 8-22 days in a greenhouse with an approximate 14 h photoperiod which was maintained at about 29° C. during the day and 26° C. during the night. Nutrients (Peters Excel® 15-5-15 5-Ca 2-Mg and iron chelate) were applied in the irrigation solution as needed and water was added on a regular basis. Supplemental lighting was provided with overhead metal halide 1000-Watt lamps as necessary. The plants were employed for testing when they reached the first through fourth true leaf stage.
# as §3, with “(Compound A),” for “(compound A)”, “concentrate),” for “concentrate)”, “Compound” for “compound”
# as §4, with “3.5%.” for “3.5% or technical material.”
# (§12) Treatment requirements were calculated based upon the rates being tested, the concentration of active ingredient or acid equivalent in the formulation, and a 12 mL application volume at a rate of 187 L/ha.
# (§13) For treatments comprised of formulated compounds, measured amounts of compounds were placed individually in 25 mL glass vials and diluted in a volume of 1.25% (v/v) Agri-Dex® crop oil concentrated to obtain 12× stock solutions. […] Application solutions were prepared by adding an appropriate amount of each stock solution (e.g., 1 mL) and diluted to the appropriate final concentrations with the addition of 10 mL of an aqueous mixture of 1.25% (v/v) crop oil concentrate so that the final spray solutions contained 1.25+/−0.05% (v/v) crop oil concentrate.
# (§14) For treatments comprised of formulated and technical compounds, weighed amounts of the technical materials were placed individually in 25 mL glass vials and dissolved in a volume of 97:3 v/v acetone/DMSO to obtain 12× stock solutions, and measured amounts of the formulated compounds were placed individually in 25 mL glass vials and diluted in a volume of 1.5% (v/v) crop oil concentrate or water to obtain 12× stock solutions. […] Application solutions were prepared by adding an appropriate amount of each stock solution (e.g., 1 mL) and diluted to the appropriate final concentrations with the addition of an appropriate amount of an aqueous mixture of 1.5% (v/v) crop oil concentrate so that the final spray solutions contained 1.25% (v/v) crop oil concentrate. As required, additional water and/or 97:3 v/v acetone/DMSO was added to individual application solutions so that the final acetone and DMSO concentrations of the application solutions being compared were 8.1% and 0.25%, respectively.
# (§15) All stock solutions and applications solutions were visually inspected for compound compatibility prior to application. Spray solutions were applied to the plant material with an overhead Mandel track sprayer equipped with a 8002E nozzles calibrated to deliver 187 L/ha over an application area of 0.503 m^2 at a spray height of 18 to 20 inches (46 to 50 cm) above average plant canopy height. […]
# ECHOR = assay: In-water applied weed control, transplanted paddy rice, greenhouse (Example II); assay type: in vivo, Echinochloa oryzoides (Ard.) Fritsch
# Method: as §1, §2, §3, §4, §5, §6, §7, §8, §9
# ECHCO = assay: Post-emergence foliar-applied weed control, greenhouse (Example I); assay type: in vivo, Echinochloa colona (L.) Link
# Source text: as §10, §11
# as §3, with “(Compound A),” for “(compound A)”, “concentrate),” for “concentrate)”, “Compound” for “compound”
# as §4, with “3.5%.” for “3.5% or technical material.”
# as §12, §13, §14, §15
# BRAPP = assay: as above; assay type: in vivo
# Source text: as §10, §11
# as §3, with “(Compound A),” for “(compound A)”, “concentrate),” for “concentrate)”, “Compound” for “compound”
# as §4, with “3.5%.” for “3.5% or technical material.”
# as §12, §13, §14, §15
# IPOHE = assay: as above; assay type: in vivo, Ipomoea hederacea Jacq.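 As to Visual Weed Control (%) - 20 DAA IPOHE Obs: visual score 0 no injury to 100 complete kill versus untreated plants.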
# Source text: as §10, §11
# as §3, with “(Compound A),” for “(compound A)”, “concentrate),” for “concentrate)”, “Compound” for “compound”
# as §4, with “3.5%.” for “3.5% or technical material.”
# as §12, §13, §14, §15
# ECHCG [2] = assay: as above; assay type: in vivo, Echinochloa crusgalli (L.) Beauv.
# Source text: as §10, §11
# as §3, with “(Compound A),” for “(compound A)”, “concentrate),” for “concentrate)”, “Compound” for “compound”
# as §4, with “3.5%.” for “3.5% or technical material.”
# as §12, §13, §14, §15
# CYPIR = assay: as above; assay type: in vivo, Cyperus iria L.
# Source text: as §10, §11
# as §3, with “(Compound A),” for “(compound A)”, “concentrate),” for “concentrate)”, “Compound” for “compound”
# as §4, with “3.5%.” for “3.5% or technical material.”
# as §12, §13, §14, §15
# SCPMA = assay: In-water applied weed control, transplanted paddy rice, greenhouse (Example II); assay type: in vivo
# Method: as §1, §2, §3, §4, §5, §6, §7, §8, §9
# CYPRO = assay: as above; assay type: in vivo, Cyperus rotundus L.
# Method: as §1, §2, §3, §4, §5, §6, §7, §8, §9
# SCPJU = assay: Post-emergence foliar-applied weed control, greenhouse (Example I); assay type: in vivo, Schoenoplectus juncoides (Roxb.) Palla
# Source text: as §10, §11
# as §3, with “(Compound A),” for “(compound A)”, “concentrate),” for “concentrate)”, “Compound” for “compound”
# as §4, with “3.5%.” for “3.5% or technical material.”
# as §12, §13, §14, §15
# [3] = 100 gae/ha, Benzobicyclon (technical)
# [4] = 100 gai/ha, Benzobicyclon (3.5%)
# [5] = 200 gai/ha, Benzobicyclon (3.5%)
# [6] = 50 gai/ha, Benzobicyclon (technical)
compound,measurement,setting,value
"CS(=O)(=O)c1ccc(C(=O)C2C(=O)CCCC2=O)c(Cl)c1 [Sulcotrione, 2-[2-chloro-4-(methylsulfonyl)benzoyl]-1,3-cyclohexanedione, reference compound]",Visual Weed Control (%) - 20 DAA ECHCG Obs,ECHCG [1]; 22.5 gai/ha,0%
same,Visual Weed Control (%) - 20 DAA DIGSA Obs,DIGSA,25%
same,Visual Weed Control (%) - 20 DAA ECHOR Obs,ECHOR; 22.5 gai/ha,10%
same,Visual Weed Control (%) - 20 DAA ECHCO Obs,ECHCO; 37.5 gai/ha,15%
same,Visual Weed Control (%) - 20 DAA ECHCO Obs,ECHCO; 75 gai/ha,35%
same,Visual Weed Control (%) - 20 DAA ECHCO Obs,ECHCO; 150 gai/ha,95%
same,Visual Weed Control (%) - 20 DAA BRAPP Obs,BRAPP; 37.5 gai/ha,0%
same,Visual Weed Control (%) - 20 DAA BRAPP Obs,BRAPP; 75 gai/ha,20%
same,Visual Weed Control (%) - 20 DAA BRAPP Obs,BRAPP; 150 gai/ha,60%
same,Visual Control (%) - 20 DAA IPOHE Obs,IPOHE; 37.5 gai/ha,20%
same,Visual Weed Control (%) - 20 DAA IPOHE Obs,IPOHE; 37.5 gai/ha,20%
same,Visual Weed Control (%) - 20 DAA IPOHE Obs,IPOHE; 75 gai/ha,30%
same,Visual Weed Control (%) - 20 DAA IPOHE Obs,IPOHE; 150 gai/ha,80%
same,Visual Weed Control (%) - 20 DAA ECHCG Obs,ECHCG [2]; 37.5 gai/ha,0%
same,Visual Weed Control (%) - 20 DAA ECHCG Obs,ECHCG [2]; 75 gai/ha,20%
same,Visual Weed Control (%) - 20 DAA ECHCG Obs,ECHCG [2]; 150 gai/ha,95%
"CS(=O)(=O)c1ccc(C(=O)C2=C(Sc3ccccc3)C3CCC(C3)C2=O)c(Cl)c1 (stereo not shown) [Benzobicyclon, 3-(2-chloro-4-mesylbenzoyl)-2-phenylthiobicyclo[3.2.1]oct-2-en-4-one, reference compound]",Visual Weed Control (%) - 22 DAA CYPIR Obs,CYPIR; 100 gai/ha,0%
same,Visual Weed Control (%) - 22 DAA CYPIR Obs,CYPIR; 200 gai/ha,0%
same,Visual Weed Control (%) - 21 DAA SCPMA Obs,SCPMA; [3],80%
same,Visual Weed Control (%) - 21 DAA SCPMA Obs,SCPMA; [4],70%
same,Visual Weed Control (%) - 21 DAA SCPMA Obs,SCPMA; [5],93%
same,Visual Weed Control (%) - 22 DAA ECHCG Obs,ECHCG [1]; 100 gai/ha,30%
same,Visual Weed Control (%) - 22 DAA ECHCG Obs,ECHCG [1]; 200 gai/ha,45%
same,Visual Weed Control (%) - 22 DAA ECHOR Obs,ECHOR; [6],50%
same,Visual Weed Control (%) - 21 DAA ECHOR Obs,ECHOR; [3],30%
same,Visual Weed Control (%) - 22 DAA ECHCO Obs,ECHCO; 50 gai/ha,10%
same,Visual Weed Control (%) - 22 DAA ECHCO Obs,ECHCO; 100 gai/ha,10%
same,Visual Weed Control (%) - 22 DAA ECHCO Obs,ECHCO; 200 gai/ha,85%
same,Visual Weed Control (%) - 22 DAA CYPRO Obs,CYPRO; [6],10%
same,Visual Weed Control (%) - 22 DAA CYPRO Obs,CYPRO; [4],30%
same,Visual Weed Control (%) - 22 DAA CYPRO Obs,CYPRO; [5],45%
same,Visual Weed Control (%) - 22 DAA SCPJU Obs,SCPJU; 50 gai/ha,50%
same,Visual Weed Control (%) - 22 DAA SCPJU Obs,SCPJU; 100 gai/ha,60%
same,Visual Weed Control (%) - 22 DAA SCPJU Obs,SCPJU; 200 gai/ha,70%
same,Visual Weed Control (%) - 22 DAA ECHCG Obs,ECHCG [2]; 50 gai/ha,0%
same,Visual Weed Control (%) - 22 DAA ECHCG Obs,ECHCG [2]; 100 gai/ha,20%
same,Visual Weed Control (%) - 22 DAA ECHCG Obs,ECHCG [2]; 200 gai/ha,15%
